From article PMC3809587, “Structure and function of the Smoothened extracellular domain in vertebrate Hedgehog signaling” (eLife, 2013)
“Also recorded” adds a separate entry of the source. Read-outs that look alike come from different tables or passages of the source. One block for each compound: values may come before it.

Experiments:
[1] = target: T1, mSmo CRD-Fc (Mus musculus, UniProt P56726); experiment: Ligand affinity chromatography: mSmo CRD-Fc binding to 20(S)-OHC beads; conditions: free compound added as competitor
T1 construct: made in house; host or cells: 293F suspension cells (secreted)
T1 sequence (P56726 33-183): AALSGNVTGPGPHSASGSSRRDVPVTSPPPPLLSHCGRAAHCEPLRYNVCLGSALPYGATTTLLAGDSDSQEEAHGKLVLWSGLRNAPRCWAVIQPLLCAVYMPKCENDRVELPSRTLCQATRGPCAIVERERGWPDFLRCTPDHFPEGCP
Protocol: After binding was allowed to proceed for 12 hr at 4°C, the resin was washed and captured protein was eluted as described above. The presence of mSmo CRD-Fc was measured by an anti-human HRP-coupled antibody (1:20,000) or anti-human IR800-coupled antibody (1:10,000; for all quantitation, detected by LiCor Odyssey). The presence of zSmo ectodomain protein was measured by colloidal Coomassie staining (GelCode Blue, Pierce/Thermo Scientific). […]

[2] = test system: Hh reporter (8xGli-responsive promoter); experiment: Luciferase-based Hh reporter assay; assay type: cell-based, mouse; conditions: in the absence of Shh
Protocol: For reporter assays in NIH 3T3 cells, a 10-cm plate of cells was transfected with 8 μg of a 4:1 wt/wt ratio of firefly luciferase reporter driven by an 8xGli-responsive promoter ([Sasaki et al., 1997]) and a Renilla luciferase reporter driven by a constitutive TK promoter (Promega, Madison, WI). The next day, transfected cells were seeded into a 96-well plate, grown to confluence, and treated overnight with drugs diluted in media containing 0.5% fetal bovine serum (FBS). For reporter assays in Smo^−/− cells, 25,000 cells per well were seeded in a 24-well plate 24 hr prior to transfection. […] Activity of both reporters was measured using the Dual-Luciferase Reporter kit (Promega) and read on a Synergy H1 Hybrid Multi-Mode Microplate Reader (BioTek, Winooski, VT). […]
For Hh reporter assays, each point is reported as the mean ± standard deviation (SD) derived from triplicates. […] Relative luciferase activity was calculated by dividing Gli luciferase by Renilla luciferase luminescence. Fold-change in reporter activity was calculated by dividing each replicate by the mean reporter activity of the vehicle-treated control. Normalized (% of max) Hh reporter activity was calculated by setting the maximum value of a set to 100% and zero to 0% using the ‘normalize’ function of GraphPad Prism. […]

[3] = target: T2, mSmo D477H (Mus musculus, UniProt P56726, D477H); experiment: Hh reporter assay in Smo−/− cells transfected with mSmo D477H; assay type: cell-based; conditions: Shh, 25 µM, 48 hr
T2 construct: All mSmo mutants were made using Quickchange or PCR methods in the context of a previously described construct encoding full-length mouse Smo (UniProt P56726); expressed in transfected cells; host or cells: Smo-/- mouse embryonic fibroblasts (transient)
T2 sequence (P56726 33-793 D477H): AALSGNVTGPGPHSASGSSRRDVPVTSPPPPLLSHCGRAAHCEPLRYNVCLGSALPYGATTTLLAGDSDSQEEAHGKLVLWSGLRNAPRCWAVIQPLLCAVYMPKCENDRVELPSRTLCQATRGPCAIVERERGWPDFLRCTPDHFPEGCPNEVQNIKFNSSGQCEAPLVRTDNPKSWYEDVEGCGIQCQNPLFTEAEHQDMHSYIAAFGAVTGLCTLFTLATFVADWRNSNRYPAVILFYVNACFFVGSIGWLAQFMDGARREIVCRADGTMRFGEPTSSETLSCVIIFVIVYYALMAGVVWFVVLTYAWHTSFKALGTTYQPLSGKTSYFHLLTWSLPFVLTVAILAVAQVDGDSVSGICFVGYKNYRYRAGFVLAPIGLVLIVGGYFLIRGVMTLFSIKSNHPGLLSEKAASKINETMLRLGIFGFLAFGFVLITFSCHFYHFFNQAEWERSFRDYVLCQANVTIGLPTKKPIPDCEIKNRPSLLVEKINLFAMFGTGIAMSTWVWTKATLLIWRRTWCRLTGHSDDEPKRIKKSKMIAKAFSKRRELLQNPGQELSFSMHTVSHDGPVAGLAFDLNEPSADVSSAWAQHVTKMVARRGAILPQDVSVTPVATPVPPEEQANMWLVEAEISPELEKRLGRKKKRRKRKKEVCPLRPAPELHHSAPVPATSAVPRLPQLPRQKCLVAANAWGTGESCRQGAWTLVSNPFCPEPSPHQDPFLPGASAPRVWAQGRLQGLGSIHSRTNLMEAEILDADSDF
Protocol: (§1) For reporter assays in NIH 3T3 cells, a 10-cm plate of cells was transfected with 8 μg of a 4:1 wt/wt ratio of firefly luciferase reporter driven by an 8xGli-responsive promoter ([Sasaki et al., 1997]) and a Renilla luciferase reporter driven by a constitutive TK promoter (Promega, Madison, WI). The next day, transfected cells were seeded into a 96-well plate, grown to confluence, and treated overnight with drugs diluted in media containing 0.5% fetal bovine serum (FBS). For reporter assays in Smo^−/− cells, 25,000 cells per well were seeded in a 24-well plate 24 hr prior to transfection. The next day, after a media replacement step, each well was transfected with 1 ng Smo construct and 500 ng of the reporter mix described above, using Xtreme Gene HP (Roche, Mannheim, Germany). After overnight transfection, the media were once again changed to fresh media. Cells were grown to confluence and treated with drugs diluted in media with 0.5% FBS for 48 hr. Activity of both reporters was measured using the Dual-Luciferase Reporter kit (Promega) and read on a Synergy H1 Hybrid Multi-Mode Microplate Reader (BioTek, Winooski, VT). The Gli luciferase to Renilla luciferase ratio is reported as ‘Hedgehog reporter activity’. Each experiment, which included three technical replicates, was repeated at least three times.

[4] = target: T3, mSmoM2 (Mus musculus, UniProt P56726, W539L); experiment: Hh reporter assay in NIH 3T3 cells transfected with mSmoM2; assay type: cell-based; conditions: 10 µM each, 12 hr
T3 construct: All mSmo mutants were made using Quickchange or PCR methods in the context of a previously described construct encoding full-length mouse Smo (UniProt P56726); expressed in transfected cells; host or cells: NIH 3T3 cells
T3 sequence (P56726 33-793 W539L): as the sequence (P56726 33-793 D477H) above, with H445D, W507L counted along it
Protocol: as §1

[5] = target: T4, full-length mSmo (Mus musculus, UniProt P56726); experiment: Bodipy-cyclopamine binding to Smo-expressing cells by FACS
T4 construct: expressed in transfected cells
T4 sequence (P56726 33-793): as the sequence (P56726 33-793 D477H) above, with H445D counted along it

[6] = test system: endogenous mSmo in cilia of NIH 3T3 cells; design: method as in Rohatgi et al., 2009; conditions: ref Rohatgi et al., 2009; cited from earlier work
[7] = test system: Hh reporter (8xGli-responsive promoter); conditions: cited from earlier work
[8] = target: T5, YFP-mSmo (Mus musculus, UniProt P56726); experiment: Gli1 and Gli3R immunoblot in Smo−/−:YFP-mSmo cells; assay type: cell-based; conditions: SAG 100 nM, 20(S)-OHC 10 μM
T5 construct: Smo^−/− cells stably expressing full-length (FL) YFP-mSmo or ΔCRD-YFP-mSmo were treated with Shh, SAG (100 nM) or 20(S)-OHC (10 μM); expressed in transfected cells
T5 sequence (P56726 33-793): as the sequence (P56726 33-793 D477H) above, with H445D counted along it
Protocol: Cultured cells stably expressing YFP-mSmo, ΔCRD-YFP-mSmo, or ΔC-YFP-mSmo were scraped into ice-cold PBS containing SigmaFast Protease inhibitor cocktail (Sigma) and collected as a pellet by centrifugation (1000×g, 10 min, 4°C). Cells were lysed (1 hr, 4°C) by agitation in modified RIPA buffer (50 mM sodium-Tris pH 7.4, 150 mM sodium chloride, 2% NP-40, 0.5% deoxycholate, 0.1% sodium-dodecyl sulfate [SDS], 1 mM dithiothreitol and the SigmaFast Protease inhibitor cocktail). After clarification (20,000×g, 45 min, 4°C), the protein concentration of each lysate was measured using the bicinchoninic acid assay (BCA, Pierce/Thermo Scientific, Rockford, IL). Lysate aliquots containing equal amount of total protein were fractionated on an 8% SDS-PAGE gel and transferred to a nitrocellulose membrane for immunoblotting with anti-Gli1 antibody (#L42B10, 1:500; Cell Signaling, Denvers, MA), anti-GFP antibody (1:5000; Novus, Littleton, CO), anti-Gli3 antibody (AF3690 1:200; R&D, Minneapolis, MN) and anti-p38 antibody (ab31828, 1:2000; Abcam, Cambridge, MA). In Figures 1–4, vertical dashed black lines represent non-contiguous lanes from the same immunoblot juxtaposed for clarity.

[9] = target: T6, ΔCRD-YFP-mSmo (Mus musculus, UniProt P56726, DEL68-184); experiment: Hh signaling by ΔCRD-YFP-mSmo in Smo−/− cells (immunoblot, Hh reporter); assay type: cell-based; conditions: SAG 100 nM, 20(S)-OHC 10 μM
T6 construct: All mSmo mutants were made using Quickchange or PCR methods in the context of a previously described construct encoding full-length mouse Smo (UniProt P56726); expressed in transfected cells
T6 sequence (P56726 with tags, fused parts or gaps DEL68-184): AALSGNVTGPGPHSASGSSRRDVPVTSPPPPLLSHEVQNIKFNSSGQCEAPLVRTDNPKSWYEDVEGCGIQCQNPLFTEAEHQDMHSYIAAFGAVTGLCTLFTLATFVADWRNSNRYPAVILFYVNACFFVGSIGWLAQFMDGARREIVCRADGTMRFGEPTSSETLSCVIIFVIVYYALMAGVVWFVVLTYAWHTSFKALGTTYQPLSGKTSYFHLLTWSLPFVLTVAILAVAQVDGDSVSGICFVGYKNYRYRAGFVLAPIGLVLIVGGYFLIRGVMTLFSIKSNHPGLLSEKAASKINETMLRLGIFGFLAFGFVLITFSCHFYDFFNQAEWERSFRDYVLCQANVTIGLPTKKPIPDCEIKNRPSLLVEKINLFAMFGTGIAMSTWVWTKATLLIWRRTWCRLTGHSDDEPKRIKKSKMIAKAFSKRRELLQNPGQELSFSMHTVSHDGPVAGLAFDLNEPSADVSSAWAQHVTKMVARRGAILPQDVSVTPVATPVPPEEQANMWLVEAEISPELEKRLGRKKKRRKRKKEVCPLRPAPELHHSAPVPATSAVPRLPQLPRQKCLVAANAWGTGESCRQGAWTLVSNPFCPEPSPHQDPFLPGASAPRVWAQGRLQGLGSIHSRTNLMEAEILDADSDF

[10] = test system: Smo; conditions: ref Wang et al., 2012; cited from earlier work

Compound: C#CCCC(=O)[C@H]1CC[C@H]2[C@@H]3CC=C4C[C@@H](O)CC[C@]4(C)[C@H]3CC[C@]12C [20-keto-yne, (3β, 17β)-17-(1-oxopent-4-yn-1-yl)-androst-5-en-3-ol]
- inhibition of binding of mSmo CRD-Fc to 20(S)-OHC beads [1]: blocked the binding
- activation of Hh signaling [2]: weak activators of signaling
- signaling by mSmo D477H [3]: reduced signaling
- signaling by mSmoM2 [4]: reduced signaling
- competition of bodipy-cyclopamine binding [5]: did not affect the binding

Compound: CS(=O)(=O)c1ccc(C(=O)Nc2ccc(Cl)c(-c3ccccn3)c2)c(Cl)c1 [Vismodegib]
- Shh-induced Smo accumulation in cilia [6]: prevent Shh-induced Smo accumulation in cilia

- inhibition of binding of mSmo CRD-Fc to 20(S)-OHC beads [1]: unable to inhibit binding
Compound: CC(C)CCC[C@@](C)(O)[C@@H]1CC[C@@H]2[C@H]3CC=C4C[C@H](O)CC[C@@]4(C)[C@@H]3CC[C@]21C [ent-20(S)-OHC]
- activation of Hh signaling ([7]; ref Nachtergaele et al., 2012): cannot activate Hh signaling

- inhibition of binding of mSmo CRD-Fc to 20(S)-OHC beads [1]: failed to inhibit the binding
- activation of Hh target gene Gli1 [8]: could activate a Hh target gene, Gli1
- response of ΔCRD-YFP-mSmo to agonist (Hh target genes, Gli3R) [9]: retained its ability to respond to SAG
Compound: CNC1CCC(N(Cc2cccc(-c3ccncc3)c2)C(=O)c2sc3ccccc3c2Cl)CC1 (stereo not shown) [SAG]
- Gli3R level [8]: loss of the repressor form of Gli3 (Gli3R) was observed

Compound: CCCC1O[C@@H]2C[C@H]3[C@@H]4CCC5=CC(=O)C=C[C@]5(C)[C@H]4[C@@H](O)C[C@]3(C)[C@]2(C(=O)CO)O1 (stereo partly shown) [Budesonide]
- competition with cyclopamine for binding to Smo [10]: fail to compete with cyclopamine for binding to Smo

- inhibition of binding of mSmo CRD-Fc to 20(S)-OHC beads [1]: failed to inhibit the binding
- competition of bodipy-cyclopamine binding [5]: can be competed
Compound: Cc1nn(-c2ccccc2)c(C)c1/C=N/N1CCN(Cc2ccccc2)CC1 [SANT-1]
- Shh-induced Smo accumulation in cilia [6]: prevent Shh-induced Smo accumulation in cilia

Compound: CC(C)CCC[C@@](C)(O)[C@H]1CC[C@H]2[C@@H]3CC=C4C[C@@H](O)CC[C@]4(C)[C@H]3CC[C@@]21C [20(R)-OHC]
- inhibition of binding of mSmo CRD-Fc to 20(S)-OHC beads [1]: unable to inhibit binding; also recorded: failed to inhibit
- activation of Hh signaling ([7]; ref Nachtergaele et al., 2012): cannot activate Hh signaling

- inhibition of binding of mSmo CRD-Fc to 20(S)-OHC beads [1]: failed to inhibit the binding
Compound: CCC(C)n1ncn(-c2ccc(N3CCN(c4ccc(OCC5COC(Cn6cncn6)(c6ccc(Cl)cc6Cl)O5)cc4)CC3)cc2)c1=O (stereo not shown) [Itraconazole]

Compound: (3β, 17β)-17-[(2R)-2-hydroxy-hex-4-yn-2-yl]-androst-5-en-3-ol [20(R)-yne]
- inhibition of binding of mSmo CRD-Fc to 20(S)-OHC beads [1]: blocked the binding
- activation of Hh signaling [2]: weak activators of signaling
- signaling by mSmo D477H [3]: reduced signaling
- signaling by mSmoM2 [4]: reduced signaling
- competition of bodipy-cyclopamine binding [5]: did not affect the binding

Compound: CC(C)CCCC(=O)[C@H]1CC[C@H]2[C@@H]3CC=C4C[C@@H](O)CC[C@]4(C)[C@H]3CC[C@]12C [20-keto-cholesterol]
- inhibition of binding of mSmo CRD-Fc to 20(S)-OHC beads [1]: failed to inhibit

Compound: CC(C)CCN[C@@H](C)[C@H]1CC[C@H]2[C@@H]3CC=C4C[C@@H](O)CC[C@]4(C)[C@H]3CC[C@]12C [22-azacholesterol]
- block of signaling induced by SAG or by mSmoM2 ([7]; ref Nedelcu et al., 2013): does not block signaling induced by SAG or by mSmoM2

Compound: C#CCC[C@](C)(O)[C@H]1CC[C@H]2[C@@H]3CC=C4C[C@@H](O)CC[C@]4(C)[C@H]3CC[C@@]21C [20(S)-yne]
- inhibition of binding of mSmo CRD-Fc to 20(S)-OHC beads [1]: Binding could be inhibited
- potency relative to 20(S)-OHC ([7]; Hh-activation potency, ref Nachtergaele et al., 2012): ~10 fold

Compound: CC(C)C(=O)OCC(=O)[C@@]12O[C@H](C3CCCCC3)O[C@@H]1C[C@H]1[C@@H]3CCC4=CC(=O)C=C[C@]4(C)[C@H]3[C@@H](O)C[C@@]12C [Ciclesonide]
- competition with cyclopamine for binding to Smo [10]: fail to compete with cyclopamine for binding to Smo

- inhibition of binding of mSmo CRD-Fc to 20(S)-OHC beads [1]: unable to inhibit binding
Compound: CC(C)CC[C@H](O)[C@@H](C)[C@H]1CC[C@H]2[C@@H]3CC=C4C[C@@H](O)CC[C@]4(C)[C@H]3CC[C@]12C [22(S)-OHC]
- activation of Hh signaling ([7]; ref Nachtergaele et al., 2012): cannot activate Hh signaling
